From US20050118226A1, “Methods for treating ACAT-related diseases” (priority 2003, published 2005) come the findings set out here.

“Also recorded” adds a separate entry of the source.

For one test, the target named is Aβ40 (Homo sapiens, UniProt P05067). Put plainly: Turbidity assay of Aβ40 aggregation. As to conditions: 10 μM, absorbance at 400 nm over four days. As to the method:
Aβ40 aggregation was monitored according to the method of Jarrett et al. (Jarrett et al., 1993). Briefly, Aβ40 (100 μg/ml) was incubated at 37° C. in TBS in a 384-well plate (60 μl/well). Well turbidity was monitored for four days by following absorbance at 400 nm. Aβ40 aggregation was promoted by the addition of “aged” (pre-incubated for 2 weeks at room temperature) Aβ42 (Aβ42/Aβ40=1/10) (Jarrett et al., 1993) or Zn/histine buffer (50 μM Zn++in 350 μM histine) (Bush et al., 1994). Absorbance of test wells was blanked on signal from samples without Aβ40. For some experiments, incubation buffers included CP-113,818 (10 μM).

The test system of the next test is γ-secretase. Put plainly: In vitro generation of APP intracellular domain (AICD), γ-secretase activity assay on CHO cell membrane fractions. It counts as biochemical, Chinese hamster. As to conditions: CHO cell (overexpressing APP) membrane fractions, increasing amounts of compound. As to the method:
Membrane preparation and in vitro generation of AICD were performed as described (Gu et al., 2001; Kim et al., 2002). P2 membrane fractions were prepared from CHO cells overexpressing wild type APP and resuspended in Buffer H (20 mM HEPES, 150 mM NaCl, 10% glycerol, 5 mM EDTA, pH 7.4) with protease inhibitors. In vitro cleavage experiments were performed by incubating the membrane fractions at 0° C. or 37° C. for 1 hour with the indicated amounts of CP-113,818. As a negative control, a specific γ-secretase inhibitor, L-685,458, was added to one of the samples.

Test [1] concerns γ-secretase complex components and substrates, BACE1, ApoE. Put plainly: Western blot of γ-secretase components and substrates, BACE1 and ApoE in non-transgenic littermates. The format is in vivo, mouse. As to the method: For Western blot analyses, frozen hemispheres of non-transgenic littermates were homogenized in TBS buffer containing 5 mM EDTA, 1 mM 1,10-phenanthroline (ICN Biomedicals), 20 μM ALLN (BioMol) and a protease inhibitor mixture (Roche). Homogenates were centrifuged at 100000 g for 1 hour at +4° C. The supernatants were used for analyses of secreted APP forms and ApoE, while the pellets extracted with the homogenization buffer containing 1% Triton X-100 and 0.2% SDS. 120 μg of total protein were resolved on 4-12% or 12% NuPAGE Bis-Tris gels (Invitrogen) under reducing conditions, and Western blots were performed as described previously (Puglielli et al., 2001). For analysis of Notch-ICD (NICD), 250 μg of total protein was immunoprecipitated with an NICD-specific antibody (cleavage site (Val1744)-specific; Cell Signaling Technology) according to manufacturer's recommendations. Antibodies used for Western blots were R1736 (specific for sAPP-α; a gift from Dr. D. J. Selkoe, Brigham and Women's Hospital, Boston, Mass.), Abl4 (PS 1-NTF; a gift from Dr. S. E. Gandy, Thomas Jefferson University, Philadelphia, Pa.), Pen2 (a gift from Dr. S. S. Sisodia, University of Chicago, Chicago, Ill.), N-Cadherin (C32, C-terminal; BD Transduction Laboratories), ApoE (Santa Cruz Biotechnology), β-tubulin (Sigma), BACE1 and Nicastrin (Affinity BioReagents). Rbt×APP (CTF), 22C11 (APP-NTF) and Rbt×PSI (PS 1-CTF) were from Chemicon International. BACE stainings (N-terminal; Affinity BioReagents) were confirmed with two additional antibodies; Ms×BACE1 (Chemicon International) and BACE (C-terminal; Affinity BioReagents). Densitometric analyses were performed using the QuantityOne software package (Bio-Rad). Statistical significance was determined by Student's t test. For Western blot analyses shown in supplemental figures, neutralized formic acid fractions (approximately 100 μg of total protein) were precipitated by adding 50% trichloroacetic acid to 15.5% final concentration. After 30 min incubation and centrifugation at 4° C., the pellets were solubilized by adding 10 μl of 2M Tris base and 10 μl of 4×LDS-PAGE loading buffer (NuPage, Invitrogen). Before loading, the samples were incubated for 30 min at 37° C., freeze-thawed once and boiled. Western blot analysis was performed as described above.
Our previous cell-based studies have shown that ACAT inhibition reduces Aβ generation and alters APP processing by all three secretases (Puglielli et al., 2001). To determine whether CP-113,818 treatment modified brain APP processing in hAPP mice, we initially resolved formic acid-extracted brain proteins by SDS-PAGE to detect APP and its proteolytic derivatives. […] However, levels of the secreted cleavage products of both α- and β-secretases (sAPP) were reduced by treatment with the ACAT inhibitor albeit not nearly as dramatically as Aβ (FIG. 9). Inhibition of sAPP production in the absence of a change in CTFs was somewhat surprising, and possibly an artifact caused by formic acid extraction. Because tissue from treated hAPP mice had been extracted with formic acid or fixed for histological studies, we looked at levels of APP-CTFs in total brain lysates from the non-transgenic littermates used in the Morris water maze tests. Using non-transgenic animals for these experiments also afforded an assessment of the effects of CP-113,818 on endogenous APP processing. CP-113,818 reduced liver cholesterol/cholesteryl-esters and serum cholesterol of non-transgenic littermates similarly to the transgenic animals shown in FIG. 1C (data not shown). Endogenous mouse APP-CTF levels in brain lysates from CP-113,818-treated animals decreased by 44% when compared to placebo-treated mice (n=8, p<0.005, values normalized to APP holoprotein levels; FIG. 10A, B). We could not resolve C99 and C83 from these samples due to smearing in the low molecular weight range because of high protein load (FIG. 10A). […]
(A western blot detects proteins with antibodies after separation by electrophoresis.)

The test system of another test is APP. Put plainly: Western blot of APP and fragments in formic acid brain extracts of hAPP mice. It counts as in vivo, mouse. As to the method: For Western blot analyses, frozen hemispheres of non-transgenic littermates were homogenized in TBS buffer containing 5 mM EDTA, 1 mM 1,10-phenanthroline (ICN Biomedicals), 20 μM ALLN (BioMol) and a protease inhibitor mixture (Roche). Homogenates were centrifuged at 100000 g for 1 hour at +4° C. The supernatants were used for analyses of secreted APP forms and ApoE, while the pellets extracted with the homogenization buffer containing 1% Triton X-100 and 0.2% SDS. 120 μg of total protein were resolved on 4-12% or 12% NuPAGE Bis-Tris gels (Invitrogen) under reducing conditions, and Western blots were performed as described previously (Puglielli et al., 2001). For analysis of Notch-ICD (NICD), 250 μg of total protein was immunoprecipitated with an NICD-specific antibody (cleavage site (Val1744)-specific; Cell Signaling Technology) according to manufacturer's recommendations. […] Densitometric analyses were performed using the QuantityOne software package (Bio-Rad). Statistical significance was determined by Student's t test. […]

Chain of Aβ40 (P05067 672-711 limits assumed): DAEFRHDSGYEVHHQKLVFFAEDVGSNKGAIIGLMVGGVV

With `CCCCCCCC[C@H](SCCCCCC)C(=O)Nc1c(SC)cc(C)nc1SC` [CP-113,818], the “effect on metal- or Aβ42-mediated aggregation of Aβ40 in vitro” value on Aβ40 is recorded as “failed to directly inhibit; also recorded: does not directly modulate”. Besides, the “effect on γ-secretase activity (AICD generation) in vitro” value with γ-secretase is “unaffected; also recorded: no direct effect”. In addition, the “Notch intracellular domain (NICD) levels” value in test [1] (immunoprecipitated from non-transgenic mouse brain lysates) is reported as “statistically unchanged; also recorded: remained unchanged”. In addition, in test [1] (non-transgenic brain lysates), the BACE protein levels entry is “unchanged; also recorded: did not alter expression levels”; the “levels of N-cadherin-CTF1” value is “unaffected; also recorded: remained unchanged”; the “levels of PS1 N- and C-terminal fragments, nicastrin, and pen-2” value was “did not detect significant changes”; the “nicastrin maturation / maturation of γ-secretase complex” value is listed as “unaffected; also recorded: did not alter maturation”. Further, in test [1] (non-transgenic littermates, soluble TBS fraction), the “expression of ApoE” value is “unchanged; also recorded: did not alter expression levels”. Moreover, in the test with APP, the “full-length APP and APP C-terminal fragments C83 and C99” value was “unchanged”. The “decrease of sAPP levels” value with APP (adjusted to full-length APP) is 60%.
